Experimental data taken from ChEMBL document CHEMBL6087462, “Cuminaldehyde Potentiates Antiproteolytic Peptide Efficacy via Parallel Pathways of Enhanced Inner Membrane-Damaging Activity and Inhibition of Bacterial Energy Metabolism” (J Med Chem, 2025).

Key:
Escherichia coli [1] = assay: Synergistic antimicrobial activity against Escherichia coli 25922 assessed as fractional inhibitory concentration index by checkerboard broth microdilution assay; format: functional
Escherichia coli [2] = assay: Synergistic antimicrobial activity against Escherichia coli 25922 assessed as fractional inhibitory concentration index in presence of citronellal by checkerboard broth microdilution assay; format: functional
Escherichia coli [3] = assay: Synergistic antimicrobial activity against Escherichia coli UB1005 assessed as fractional inhibitory concentration index in presence of cuminaldehyde by checkerboard broth microdilution assay; format: functional
Escherichia coli [4] = assay: Synergistic antimicrobial activity against Escherichia coli K88 assessed as fractional inhibitory concentration index in presence of citronellal by checkerboard broth microdilution assay; format: functional
Escherichia coli [5] = assay: Synergistic antimicrobial activity against Escherichia coli K88 assessed as fractional inhibitory concentration index in presence of citral by checkerboard broth microdilution assay; format: functional
Escherichia coli [6] = assay: Synergistic antimicrobial activity against Escherichia coli K88 assessed as fractional inhibitory concentration index in presence of perillaldehyde by checkerboard broth microdilution assay; format: functional
Escherichia coli [7] = assay: Synergistic antimicrobial activity against Escherichia coli K88 assessed as fractional inhibitory concentration index in presence of thymol by checkerboard broth microdilution assay; format: functional
Escherichia coli [8] = assay: Synergistic antimicrobial activity against Escherichia coli K99 assessed as fractional inhibitory concentration index in presence of thymol by checkerboard broth microdilution assay; format: functional
Escherichia coli [9] = assay: Synergistic antimicrobial activity against Escherichia coli 078 assessed as fractional inhibitory concentration index in presence of perillaldehyde by checkerboard broth microdilution assay; format: functional, 78
Salmonella typhimurium [10] = assay: Synergistic antimicrobial activity against Salmonella typhimurium 14028 assessed as fractional inhibitory concentration index in presence of cuminaldehyde by checkerboard broth microdilution assay; format: functional, Salmonella enterica subsp. enterica serovar Typhimurium
Salmonella typhimurium [11] = assay: Synergistic antimicrobial activity against Salmonella typhimurium 14028 assessed as fractional inhibitory concentration index in presence of citronellal by checkerboard broth microdilution assay; format: functional, Salmonella enterica subsp. enterica serovar Typhimurium
Salmonella typhimurium [12] = assay: Synergistic antimicrobial activity against Salmonella typhimurium 14028 assessed as fractional inhibitory concentration index in presence of perillaldehyde by checkerboard broth microdilution assay; format: functional, Salmonella enterica subsp. enterica serovar Typhimurium
[13] = Synergistic antimicrobial activity against Salmonella enterica subsp. enterica serovar Pullorum 7913 assessed as fractional inhibitory concentration index in presence of cuminaldehyde by checkerboard broth microdilution assay; format: functional
[14] = Synergistic antimicrobial activity against Salmonella enterica subsp. enterica serovar Pullorum 7913 assessed as fractional inhibitory concentration index in presence of citronellal by checkerboard broth microdilution assay; format: functional
[15] = Synergistic antimicrobial activity against Salmonella enterica subsp. enterica serovar Pullorum 7913 assessed as fractional inhibitory concentration index in presence of citral by checkerboard broth microdilution assay; format: functional
[16] = Synergistic antimicrobial activity against Salmonella enterica subsp. enterica serovar Pullorum 7913 assessed as fractional inhibitory concentration index in presence of thymol by checkerboard broth microdilution assay; format: functional
Pseudomonas aeruginosa [17] = assay: Synergistic antimicrobial activity against Pseudomonas aeruginosa 27853 assessed as fractional inhibitory concentration index in presence of cuminaldehyde by checkerboard broth microdilution assay; format: functional
Pseudomonas aeruginosa [18] = assay: Synergistic antimicrobial activity against Pseudomonas aeruginosa 27853 assessed as fractional inhibitory concentration index in presence of citronellal by checkerboard broth microdilution assay; format: functional
Pseudomonas aeruginosa [19] = assay: Synergistic antimicrobial activity against Pseudomonas aeruginosa 27853 assessed as fractional inhibitory concentration index in presence of carvacrol by checkerboard broth microdilution assay; format: functional
Staphylococcus aureus [20] = assay: Synergistic antimicrobial activity against Staphylococcus aureus 25923 assessed as fractional inhibitory concentration index in presence of citral by checkerboard broth microdilution assay; format: functional
Staphylococcus aureus [21] = assay: Synergistic antimicrobial activity against Staphylococcus aureus 29213 assessed as fractional inhibitory concentration index in presence of cuminaldehyde by checkerboard broth microdilution assay; format: functional
Staphylococcus aureus [22] = assay: Synergistic antimicrobial activity against Staphylococcus aureus 29213 assessed as fractional inhibitory concentration index in presence of citronellal by checkerboard broth microdilution assay; format: functional
Staphylococcus aureus [23] = assay: Synergistic antimicrobial activity against Staphylococcus aureus 29213 assessed as fractional inhibitory concentration index in presence of citral by checkerboard broth microdilution assay; format: functional
[24] = tested on: Staphylococcus epidermidis; assay: Synergistic antimicrobial activity against Staphylococcus epidermidis 12228 assessed as fractional inhibitory concentration index in presence of perillaldehyde by checkerboard broth microdilution assay; format: functional
[25] = tested on: Staphylococcus epidermidis; assay: Synergistic antimicrobial activity against Staphylococcus epidermidis 12228 assessed as fractional inhibitory concentration index in presence of carvacrol by checkerboard broth microdilution assay; format: functional
Staphylococcus aureus [26] = assay: Synergistic antimicrobial activity against Staphylococcus aureus 43300 assessed as fractional inhibitory concentration index in presence of cuminaldehyde by checkerboard broth microdilution assay; format: functional
Staphylococcus aureus [27] = assay: Synergistic antimicrobial activity against Staphylococcus aureus 43300 assessed as fractional inhibitory concentration index in presence of citronellal by checkerboard broth microdilution assay; format: functional
Staphylococcus aureus [28] = assay: Synergistic antimicrobial activity against Staphylococcus aureus 43300 assessed as fractional inhibitory concentration index in presence of citral by checkerboard broth microdilution assay; format: functional
Enterococcus faecalis [29] = assay: Synergistic antimicrobial activity against Enterococcus faecalis 29212 assessed as fractional inhibitory concentration index in presence of citral by checkerboard broth microdilution assay; format: functional
Enterococcus faecalis [30] = assay: Synergistic antimicrobial activity against Enterococcus faecalis 29212 assessed as fractional inhibitory concentration index in presence of carvacrol by checkerboard broth microdilution assay; format: functional
Escherichia coli [31] = assay: Antimicrobial activity against Escherichia coli K88 assessed as reduction in microbial growth by CLSI based broth microdilution method; format: functional
Escherichia coli [32] = assay: Antimicrobial activity against Escherichia coli K99 assessed as reduction in microbial growth by CLSI based broth microdilution method; format: functional
Escherichia coli [33] = assay: Antimicrobial activity against Escherichia coli 078 assessed as reduction in microbial growth by CLSI based broth microdilution method; format: functional
Staphylococcus aureus [34] = assay: Antimicrobial activity against Staphylococcus aureus ATCC 29213 assessed as reduction in microbial growth by CLSI based broth microdilution method; format: functional
Staphylococcus aureus [35] = assay: Antimicrobial activity against Staphylococcus aureus 43300 assessed as reduction in microbial growth by CLSI based broth microdilution method; format: functional
Enterococcus faecalis [36] = assay: Antimicrobial activity against Enterococcus faecalis ATCC 29212 assessed as reduction in microbial growth by CLSI based broth microdilution method; format: functional
[37] = Synergistic antimicrobial activity against Salmonella enterica subsp. enterica serovar Pullorum ATCC 7913 assessed as fractional inhibitory concentration by checkerboard broth microdilution assay; format: functional
Staphylococcus aureus [38] = assay: Synergistic antimicrobial activity against Staphylococcus aureus ATCC 25923 assessed as fractional inhibitory concentration by checkerboard broth microdilution assay; format: functional
Staphylococcus aureus [39] = assay: Antimicrobial activity against Staphylococcus aureus ATCC 29213 assessed as reduction in microbial growth in presence of cuminaldehyde by CLSI based broth microdilution method; format: functional
Staphylococcus aureus [40] = assay: Antimicrobial activity against Staphylococcus aureus 43300 assessed as reduction in microbial growth in presence of cuminaldehyde by CLSI based broth microdilution method; format: functional
Salmonella typhimurium [41] = assay: Antimicrobial activity against Salmonella typhimurium ATCC 7731 assessed as cuminaldehyde MIC by CLSI based broth microdilution method; format: functional, Salmonella enterica subsp. enterica serovar Typhimurium; conditions: Salmonella enterica
Staphylococcus aureus [42] = assay: Antimicrobial activity against Staphylococcus aureus ATCC 25923 assessed as cuminaldehyde MIC by CLSI based broth microdilution method; format: functional
Staphylococcus aureus [43] = assay: Antimicrobial activity against Staphylococcus aureus 43300 assessed as cuminaldehyde MIC by CLSI based broth microdilution method; format: functional

CC[C@H](C)[C@H](NC(=O)[C@@H](NC(=O)[C@@H](CCCNC(=N)N)NC(=O)[C@H](C)NC(=O)[C@H](C)NC(=O)[C@@H](N)Cc1cccc2ccccc12)[C@@H](C)CC)C(=O)N[C@@H](CC(C)C)C(=O)N[C@H](CCCNC(=N)N)C(=O)N[C@@H](Cc1c[nH]c2ccccc12)C(=O)N[C@H](CCCNC(=N)N)C(=O)N[C@@H](Cc1ccccc1)C(=O)N[C@@H](CCCNC(=N)N)C(=O)O
fractional inhibitory concentration index (FICI) (Escherichia coli [1]): 0.25
fractional inhibitory concentration index (FICI) (Escherichia coli [2]): 0.25
fractional inhibitory concentration index (FICI) (Escherichia coli [3]): 0.188
fractional inhibitory concentration index (FICI) (Escherichia coli [4]): 0.156
fractional inhibitory concentration index (FICI) (Escherichia coli [5]): 0.188
fractional inhibitory concentration index (FICI) (Escherichia coli [6]): 0.375
fractional inhibitory concentration index (FICI) (Escherichia coli [7]): 0.313
fractional inhibitory concentration index (FICI) (Escherichia coli [8]): 0.5
fractional inhibitory concentration index (FICI) (Escherichia coli [9]): 0.188
fractional inhibitory concentration index (FICI) (Salmonella typhimurium [10]): 0.25
fractional inhibitory concentration index (FICI) (Salmonella typhimurium [11]): 0.254
fractional inhibitory concentration index (FICI) (Salmonella typhimurium [12]): 0.254
fractional inhibitory concentration index (FICI) [13]: 0.125
fractional inhibitory concentration index (FICI) [14]: 0.25
fractional inhibitory concentration index (FICI) [15]: 0.25
fractional inhibitory concentration index (FICI) [16]: 0.75
fractional inhibitory concentration index (FICI) (Pseudomonas aeruginosa [17]): 0.156
fractional inhibitory concentration index (FICI) (Pseudomonas aeruginosa [18]): 0.254
fractional inhibitory concentration index (FICI) (Pseudomonas aeruginosa [19]): 0.5
fractional inhibitory concentration index (FICI) (Staphylococcus aureus [20]): 0.25
fractional inhibitory concentration index (FICI) (Staphylococcus aureus [21]): 0.094
fractional inhibitory concentration index (FICI) (Staphylococcus aureus [22]): 0.94
fractional inhibitory concentration index (FICI) (Staphylococcus aureus [23]): 0.385
fractional inhibitory concentration index (FICI) [24]: 0.375
fractional inhibitory concentration index (FICI) [25]: 1
fractional inhibitory concentration index (FICI) (Staphylococcus aureus [26]): 0.375
fractional inhibitory concentration index (FICI) (Staphylococcus aureus [27]): 0.188
fractional inhibitory concentration index (FICI) (Staphylococcus aureus [28]): 0.313
fractional inhibitory concentration index (FICI) (Enterococcus faecalis [29]): 0.375
fractional inhibitory concentration index (FICI) (Enterococcus faecalis [30]): 0.375
MIC (Escherichia coli [31]): 4 µg/mL
MIC (Escherichia coli [32]): 8 µg/mL
MIC (Escherichia coli [33]): 8 µg/mL
MIC (Staphylococcus aureus [34]): 16 µg/mL
MIC (Staphylococcus aureus [35]): 8 µg/mL
MIC (Enterococcus faecalis [36]): 8 µg/mL
FIC [37]: 0.125
FIC (Staphylococcus aureus [38]): 0.063
MIC (Staphylococcus aureus [39]): 2 µg/mL
MIC (Staphylococcus aureus [40]): 4 µg/mL
MIC (Salmonella typhimurium [41]): 1020 µg/mL
MIC (Staphylococcus aureus [42]): 256 µg/mL
MIC (Staphylococcus aureus [43]): 1020 µg/mL
